These results are taken from patent US20230094076A1, “COMBINATION THERAPY” (GlaxoSmithKline Intellectual Property Development Limited, priority 2016, published 2023).

This test relates to AML cell lines. Description: Preliminary RNA-seq studies. The format is cell-based. The following applies: chemokines, cytokines, interferons, interleukins. An excerpt:
PRMT1 has been implicated in immune regulation through modulation of the TLR receptor signaling pathway, whereby PRMT1 knock-down results in increased expression of pro-inflammatory molecules (Tikhanovich, I. et al. Dynamic Arginine Methylation of Tumor Necrosis Factor (TNF) Receptor-associated Factor 6 Regulates Toll-like Receptor Signaling. J Biol Chem 290, 22236-22249, doi:10.1074.jbc.M115.653543 (2015)).

In the case of `CNCCN(C)Cc1c[nH]nc1[C@H]1CC[C@@]2(CC1)CC(C)(C)CO2` [Compound D], the “expression of immune response gene families” value was “altered expression”.
